Results as given in publication PMC12567141, “Design, Synthesis and Biological Evaluation of Pyrazolopyrimidine Derivatives as Aryl Hydrocarbon Receptor Antagonists for Colorectal Cancer Immunotherapy” (Pharmaceutics, 2025).

How the values were obtained:
MC38 and CT26 cells = assay: Cell-cycle analysis by flow cytometry; format: cell-based; details: 24 h treatment
Description: Washed and fixed cells were stained in the dark with 0.5 mL propidium iodide/RNase staining buffer for 15 min at room temperature. DNA content, cell-cycle profiles, and forward scatter were analyzed using a Becton Dickinson LSRFortessa^TM (BD Diagnostics, San Jose, CA, USA) with emission detection at 488 nm (excitation) and 575 nm (peak emission). Data were analyzed using FlowJo (BD biosciences, San Jose, CA. USA).

[1] = test system: p53/p21/caspase-3 signaling pathway in MC38 and CT26 cells; assay: Western blot of apoptosis-regulating proteins; format: cell-based; details: 24 h
Description: For the extraction of total protein, cells were treated with 7k for 24 h in a CO2 incubator at 37 °C and washed twice with phosphate-buffered saline (PBS). Cell pellets were lysed using radioimmunoprecipitation assay (RIPA) buffer (Thermo Fisher Scientific) containing a protease and phosphatase inhibitor cocktail kit (Thermo Fisher Scientific). The lysed cells were briefly vortexed at intervals and subsequently centrifuged at 13,000× g at 4 °C. The protein sample was quantified with the bicinchoninic acid (BCA) protein assay kit (Thermo Fisher Scientific).
Equal amounts of proteins were loaded onto 10% sodium dodecyl sulfate polyacrylamide gel electrophoresis and transferred onto PVDF membranes (Millipore, Billerica, MA, USA). The membrane was blocked with 5% skim milk in Tris-buffered saline (TBS) containing Tween-20 (TBS-T) for an hour and probed with the respective primary antibodies in 5% BSA overnight at 4 °C. Following incubation, the membrane was probed with horseradish peroxidase (HRP)-conjugated secondary antibodies for an hour at room temperature. The membrane was washed three times with TBS-T and the signal was visualized using an enhanced chemiluminescence (ECL) detection reagent (GE Healthcare Life Sciences, Pittsburgh, PA, USA).
The primary antibodies used were as follows: Total p53 (Santa Cruz Biotechnology, Dallas, TX, USA, working dilution 1:500), PARP (CST, Danvers, MA, USA; working dilution 1:1000), cleaved caspase3 (CST, MA, USA; working dilution 1:1000), p21 (CST, MA, USA; working dilution 1:1000), Bcl-2 (CST, MA, USA; working dilution 1:1000), AhR (Santa Cruz; working dilution 1:500), LaminB1 (CST, MA, USA; working dilution 1:2000), GAPDH (Abcam, Cambridge, UK; working dilution 1:5000) and β-actin (CST, MA, USA; dilution 1:5000). HRP-conjugated secondary antibodies used were as follows: anti-mouse (CST, MA, USA) and anti-rabbit (CST, MA, USA).

CT26 tumor = assay: In vivo therapy, CT26 syngeneic model; set-up: species or system mice
Description: (§1) In vivo experiments were conducted using 6-week-old male immunocompetent BALB/c and C57BL/6 with 18–20 g body weight (Orient Bio Inc., Seungnam, Republic of Korea). All animal experimental procedures were maintained and used in accordance with the Guidelines for the Care and Use of Laboratory Animals of the Institute of Laboratory Animal Center, Daegu-Gyeongbuk Medical Innovation Foundation (K-MEDI hub). The animal studies were conducted after approval by the institutional reviewer board on the Ethics of Animal Experiments of the Daegu-Gyeongbuk Medical Innovation Foundation (approval number: KMEDI-24041103-01).
Study 1: Antitumor activity of 7k alone in mice with either CT26 syngeneic model or MC38 syngeneic model. Mice were subcutaneously challenged with 5 × 10^5 either MC38 or CT26 cells. When tumor formation was detected via inspection and palpation, 7k treatment was initiated once a day for 14 days by oral gavage.
Study 2: Antitumor activity of combination with anti-PD1 and 7k in CT26 tumor bearing mice. Mice were subcutaneously challenged with 5 × 10^5 CT26 cells. Tumor bearing mice were divided into four groups as following; Group 1: vehicle, Group 2: 10 mg/kg anti-PD1, Group 3: 10 mg/kg 7k, and Group 4: 10 mg/kg anti-PD1 + 10 mg/kg 7k. 7k was administered by oral gavage once daily. Anti-PD1 antibody (clone RPM1-14, Bio X cell, Lebanon, NH, USA) was injected intraperitoneally every 3 days for 4 doses.
(§2) The 7k was dissolved in solution including 5% DMSO, 55% DW, and 40% PEG. Tumor size was measured with a caliper at the indicated time points, and tumor volume (mm^3) was calculated using the following formula, tumor volume (mm^3) = d2 × D/2, where d and D are the shortest and longest diameters in mm, respectively.

MC38 tumor = assay: In vivo therapy, MC38 syngeneic model; set-up: species or system mice
Description: as §1
Study 1: Antitumor activity of 7k alone in mice with either CT26 syngeneic model or MC38 syngeneic model. Mice were subcutaneously challenged with 5 × 10^5 either MC38 or CT26 cells. […]
as §2

MC38/Luc cells = assay: Cytotoxic T lymphocyte (CTL) assay; format: cell-based; details: splenocytes of treated tumour-bearing mice, effector:target 10:1, luciferase activity
Description: Splenocytes were collected from tumour-bearing mice and stimulated with a cell activation cocktail (BioLegend) for 6 h. MC38/Luc cells as target cells were seeded in black, clear-bottomed 96-well plates (1 × 10^4 cells). After overnight incubation, splenocytes as effectors were added into wells containing target cells at an effector to target ratio of 10:1. LLC/Luc and CT26/Luc cells were used as negative target cells. Eleven hours later, luciferase activity was measured with an IVIS Lumina III instrument (PerkinElmer, Waltham, MA, USA).

CC(C)n1cc2nc(-c3cc(F)cc(F)c3)nc(NCCc3c[nH]c4ccccc34)c2n1 [Compound 7k, N-(2-(1H-indol-3-yl)ethyl)-5-(3,5-difluorophenyl)-2-isopropyl-2H-pyrazolo [4,3-d]pyrimidin-7-amine]
sub-G1 fraction (MC38 and CT26 cells): dose-dependent increase in the sub-G1 fraction
Bcl-2 expression [1]: downregulation of Bcl-2
cleaved poly (ADP-ribose) polymerase and cleaved caspase 3 [1]: upregulation of cleaved poly (ADP-ribose) polymerase and cleaved caspase 3
p21 expression [1]: increase in p21
p53 expression [1]: upregulation of p53
tumor growth inhibition (TGI) (CT26 tumor; CT26 model, combination study, 7k 10 mg/kg oral daily 14 days, anti-PD1 10 mg/kg i.p. every 3 days x4): 49%
tumor weight (CT26 tumor; CT26 tumor bearing mice, vs vehicle-treated mice (Figure S4)): significantly lower
tumor growth inhibition (TGI) (CT26 tumor; CT26 tumor-bearing mice, single agent, 10 mg/kg oral once a day for 14 days): 33%
tumor growth inhibition (TGI) (MC38 tumor; MC38 model, combination study, 7k oral daily 20 days, anti-PD1 i.p. every three days four times): 45%
tumor growth inhibition (TGI) (MC38 tumor; MC38 model, comparison of 7k and 3′,4′-dimethoxyflavone, 10 mg/kg oral once a day, 18 days): 51%
tumor weight (MC38 tumor; MC38 tumor bearing mice, vs vehicle-treated mice (Figure S5)): significantly lower
tumor growth inhibition (TGI) (MC38 tumor; MC38 tumor-bearing mice, single agent, 10 mg/kg oral once a day for 14 days): 49%
CTL-mediated killing activity against MC38-luc cells (MC38/Luc cells): minimal killing activity
